The source of these data is patent publication US11034650B2, “Compounds useful for treating a Mannheimia haemolytica or Histophilus somni infection” (Intervet Inc., priority 2016, dated 2021).

In brackets after ≈: the same amount, converted by molar mass. Where only a bound is given, the exact number is not on record here.

The first assay relates to Pasteurella multocida PM 6391 (ATCC 43137, reference strain). Nature of the assay: MIC, broth-microdilution (CLSI VET01-A4), strain PM 6391. The format is cell-based. To be noted: Pasteurella multocida strain PM 6391, broth-microdilution; unit assumed. In a few lines:
(§1)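 Broth microdilution per CLSI VET01-A4, using trays with a doubling dilution series of compound; results interpreted per CLSI VET01-S3. MIC taken as lowest concentration with no turbidity visible to the unaided eye.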
In turn, `CSC(C)(C)[C@H](NC(=O)c1ccc(C#Cc2ccc(CNCc3ccc(C)cc3)cc2)cc1)C(=O)NO` [Compound 252] returned an MIC PM 6391 of 0.8 µg/mL (≈ 1.55 µM).

As for `CC[C@H](C)[C@H](NC(=O)c1ccc(C#Cc2ccc(CN3CCCC3)cc2)cc1)C(=O)NO` [Compound 174], the MIC PM 6391 came out at 1.6 µg/mL (≈ 3.69 µM).

As to `Cc1cnc(CNCc2ccc(C#Cc3ccc(C(=O)N[C@H](C(=O)NO)C(C)(C)S(C)(=O)=O)cc3)cn2)o1` [Compound 357], the MIC PM 6391 stood at 0.4 µg/mL (≈ 0.741 µM).

Turning to `CSC(C)(C)[C@H](NC(=O)c1ccc(C#Cc2ccc(CNCc3cccnc3)cc2)cc1)C(=O)NO` [Compound 247], the MIC PM 6391 was found to be 0.8 µg/mL (≈ 1.59 µM).

In the next assay the test system is Mannheimia haemolytica MH 10720 (154, BRD field isolate). The assay can be described thus: MIC, broth-microdilution (CLSI VET01-A4), strain MH 10720. The format is cell-based. To be noted: Mannheimia haemolytica strain MH 10720, broth-microdilution; unit assumed. In a few lines: as §1
For `CSC(C)(C)[C@H](NC(=O)c1ccc(C#Cc2ccc(CNCc3ccc(C)cc3)cc2)cc1)C(=O)NO` [Compound 252], the MIC MH 10720 was 0.4 µg/mL (≈ 0.776 µM).

`CC[C@H](C)[C@H](NC(=O)c1ccc(C#Cc2ccc(CN3CCCC3)cc2)cc1)C(=O)NO` [Compound 174] returned an MIC MH 10720 of 0.8 µg/mL (≈ 1.85 µM).

`Cc1cnc(CNCc2ccc(C#Cc3ccc(C(=O)N[C@H](C(=O)NO)C(C)(C)S(C)(=O)=O)cc3)cn2)o1` [Compound 357]: the MIC MH 10720 is ≤ 0.1 µg/mL.

`CSC(C)(C)[C@H](NC(=O)c1ccc(C#Cc2ccc(CNCc3cccnc3)cc2)cc1)C(=O)NO` [Compound 247] came in with an MIC MH 10720 of 0.2 µg/mL (≈ 0.398 µM).

The next assay has as its system Mannheimia haemolytica MH 6357 (M7/2, reference strain, cattle infection strain). The assay can be described thus: MIC, broth-microdilution (CLSI VET01-A4), strain MH 6357. The format is cell-based. The note with it: Mannheimia haemolytica strain MH 6357, broth-microdilution; unit assumed. In a few lines: as §1
In turn, `CSC(C)(C)[C@H](NC(=O)c1ccc(C#Cc2ccc(CNCc3ccc(C)cc3)cc2)cc1)C(=O)NO` [Compound 252] yielded an MIC MH 6357 of 1.6 µg/mL (≈ 3.1 µM).

As for `CC[C@H](C)[C@H](NC(=O)c1ccc(C#Cc2ccc(CN3CCCC3)cc2)cc1)C(=O)NO` [Compound 174], the MIC MH 6357 stood at 3.1 µg/mL (≈ 7.15 µM).

For `Cc1cnc(CNCc2ccc(C#Cc3ccc(C(=O)N[C@H](C(=O)NO)C(C)(C)S(C)(=O)=O)cc3)cn2)o1` [Compound 357], the MIC MH 6357 stood at 0.8 µg/mL (≈ 1.48 µM).

As to `CSC(C)(C)[C@H](NC(=O)c1ccc(C#Cc2ccc(CNCc3cccnc3)cc2)cc1)C(=O)NO` [Compound 247], the MIC MH 6357 worked out at 0.4 µg/mL (≈ 0.796 µM).

The subject of another assay is Pasteurella multocida PM 12080 (IV102277-0093, BRD field isolate). The assay can be described thus: MIC, broth-microdilution (CLSI VET01-A4), strain PM 12080. Format: cell-based. To be noted: Pasteurella multocida strain PM 12080, broth-microdilution; unit assumed. In a few lines: as §1
(Dilution methods test growth across graded concentrations, often in twofold steps.)
`CSC(C)(C)[C@H](NC(=O)c1ccc(C#Cc2ccc(CNCc3ccc(C)cc3)cc2)cc1)C(=O)NO` [Compound 252] showed an MIC PM 12080 of 0.8 µg/mL (≈ 1.55 µM).

`CC[C@H](C)[C@H](NC(=O)c1ccc(C#Cc2ccc(CN3CCCC3)cc2)cc1)C(=O)NO` [Compound 174]: the MIC PM 12080 was 1.6 µg/mL (≈ 3.69 µM).

In the case of `Cc1cnc(CNCc2ccc(C#Cc3ccc(C(=O)N[C@H](C(=O)NO)C(C)(C)S(C)(=O)=O)cc3)cn2)o1` [Compound 357], the MIC PM 12080 stood at 0.2 µg/mL (≈ 0.371 µM).

`CSC(C)(C)[C@H](NC(=O)c1ccc(C#Cc2ccc(CNCc3cccnc3)cc2)cc1)C(=O)NO` [Compound 247] gave an MIC PM 12080 of 0.2 µg/mL (≈ 0.398 µM).

In the next assay the test system is Mannheimia haemolytica MH 13065 (XB0446-6003.9, BRD field isolate). The assay can be described thus: MIC, broth-microdilution (CLSI VET01-A4), strain MH 13065. The format is cell-based. The note with it: Mannheimia haemolytica strain MH 13065, broth-microdilution; unit assumed. In a few lines: as §1
In turn, `CSC(C)(C)[C@H](NC(=O)c1ccc(C#Cc2ccc(CNCc3ccc(C)cc3)cc2)cc1)C(=O)NO` [Compound 252] yielded an MIC MH 13065 of 1.6 µg/mL (≈ 3.1 µM).

`CC[C@H](C)[C@H](NC(=O)c1ccc(C#Cc2ccc(CN3CCCC3)cc2)cc1)C(=O)NO` [Compound 174]: the MIC MH 13065 was found to be 6.3 µg/mL (≈ 14.5 µM).

Regarding `Cc1cnc(CNCc2ccc(C#Cc3ccc(C(=O)N[C@H](C(=O)NO)C(C)(C)S(C)(=O)=O)cc3)cn2)o1` [Compound 357], the MIC MH 13065 was 0.8 µg/mL (≈ 1.48 µM).

Molecule `CSC(C)(C)[C@H](NC(=O)c1ccc(C#Cc2ccc(CNCc3cccnc3)cc2)cc1)C(=O)NO` [Compound 247] came in with an MIC MH 13065 of 0.4 µg/mL (≈ 0.796 µM).

Another assay relates to Mannheimia haemolytica MH 13093 (XB0472-6014.1, BRD field isolate). The assay can be described thus: MIC, broth-microdilution (CLSI VET01-A4), strain MH 13093. To be noted: Mannheimia haemolytica strain MH 13093, broth-microdilution; unit assumed. Format: cell-based. In a few lines:
as §1
The molecule `CSC(C)(C)[C@H](NC(=O)c1ccc(C#Cc2ccc(CNCc3ccc(C)cc3)cc2)cc1)C(=O)NO` [Compound 252] gave an MIC MH 13093 of 1.6 µg/mL (≈ 3.1 µM).

`CC[C@H](C)[C@H](NC(=O)c1ccc(C#Cc2ccc(CN3CCCC3)cc2)cc1)C(=O)NO` [Compound 174]: the MIC MH 13093 stood at 6.3 µg/mL (≈ 14.5 µM).

In turn, `Cc1cnc(CNCc2ccc(C#Cc3ccc(C(=O)N[C@H](C(=O)NO)C(C)(C)S(C)(=O)=O)cc3)cn2)o1` [Compound 357] showed an MIC MH 13093 of 1.6 µg/mL (≈ 2.97 µM).

With `CSC(C)(C)[C@H](NC(=O)c1ccc(C#Cc2ccc(CNCc3cccnc3)cc2)cc1)C(=O)NO` [Compound 247], the MIC MH 13093 turned out to be 0.8 µg/mL (≈ 1.59 µM).

A further assay has as its system Pasteurella multocida PM 10775 (080130003051, BRD field isolate). The assay can be described thus: MIC, broth-microdilution (CLSI VET01-A4), strain PM 10775. Format: cell-based. The note with it: Pasteurella multocida strain PM 10775, broth-microdilution; unit assumed. In a few lines:
as §1
The molecule `CSC(C)(C)[C@H](NC(=O)c1ccc(C#Cc2ccc(CNCc3ccc(C)cc3)cc2)cc1)C(=O)NO` [Compound 252] returned an MIC PM 10775 of 0.4 µg/mL (≈ 0.776 µM).

As for `CC[C@H](C)[C@H](NC(=O)c1ccc(C#Cc2ccc(CN3CCCC3)cc2)cc1)C(=O)NO` [Compound 174], the MIC PM 10775 is ≤ 0.1 µg/mL.

On to `Cc1cnc(CNCc2ccc(C#Cc3ccc(C(=O)N[C@H](C(=O)NO)C(C)(C)S(C)(=O)=O)cc3)cn2)o1` [Compound 357], for which the MIC PM 10775 is ≤ 0.1 µg/mL.

Regarding `CSC(C)(C)[C@H](NC(=O)c1ccc(C#Cc2ccc(CNCc3cccnc3)cc2)cc1)C(=O)NO` [Compound 247], the MIC PM 10775 was ≤ 0.1 µg/mL.

The next assay has as its system Pasteurella multocida PM 6267 (P 2225 (L386), reference strain, mouse infection strain). The assay can be described thus: MIC, broth-microdilution (CLSI VET01-A4), strain PM 6267. The note with it: Pasteurella multocida strain PM 6267, broth-microdilution; unit assumed. The format is cell-based. In a few lines: as §1
In turn, `CSC(C)(C)[C@H](NC(=O)c1ccc(C#Cc2ccc(CNCc3ccc(C)cc3)cc2)cc1)C(=O)NO` [Compound 252] returned an MIC PM 6267 of 0.4 µg/mL (≈ 0.776 µM).

For `CC[C@H](C)[C@H](NC(=O)c1ccc(C#Cc2ccc(CN3CCCC3)cc2)cc1)C(=O)NO` [Compound 174], the MIC PM 6267 was 0.4 µg/mL (≈ 0.923 µM).

In the case of `Cc1cnc(CNCc2ccc(C#Cc3ccc(C(=O)N[C@H](C(=O)NO)C(C)(C)S(C)(=O)=O)cc3)cn2)o1` [Compound 357], the MIC PM 6267 is 0.8 µg/mL (≈ 1.48 µM).

As to `CSC(C)(C)[C@H](NC(=O)c1ccc(C#Cc2ccc(CNCc3cccnc3)cc2)cc1)C(=O)NO` [Compound 247], the MIC PM 6267 was ≤ 0.1 µg/mL.

The test system of a further assay is Mannheimia haemolytica MH 6374 (ATCC 33396, reference strain). The assay can be described thus: MIC, broth-microdilution (CLSI VET01-A4), strain MH 6374. Format: cell-based. To be noted: Mannheimia haemolytica strain MH 6374, broth-microdilution; unit assumed. In a few lines: as §1
Consider `CSC(C)(C)[C@H](NC(=O)c1ccc(C#Cc2ccc(CNCc3ccc(C)cc3)cc2)cc1)C(=O)NO` [Compound 252], for which the MIC MH 6374 was 3.1 µg/mL (≈ 6.01 µM).

Molecule `CC[C@H](C)[C@H](NC(=O)c1ccc(C#Cc2ccc(CN3CCCC3)cc2)cc1)C(=O)NO` [Compound 174] displayed an MIC MH 6374 of 6.3 µg/mL (≈ 14.5 µM).

`Cc1cnc(CNCc2ccc(C#Cc3ccc(C(=O)N[C@H](C(=O)NO)C(C)(C)S(C)(=O)=O)cc3)cn2)o1` [Compound 357]: the MIC MH 6374 was found to be 0.8 µg/mL (≈ 1.48 µM).

Take `CSC(C)(C)[C@H](NC(=O)c1ccc(C#Cc2ccc(CNCc3cccnc3)cc2)cc1)C(=O)NO` [Compound 247]: the MIC MH 6374 stood at 0.8 µg/mL (≈ 1.59 µM).

In the next assay the test system is Mannheimia haemolytica MH 12587 (1071, BRD field isolate, macrolide-resistance: erm+, E+). Nature of the assay: MIC, broth-microdilution (CLSI VET01-A4), strain MH 12587. The format is cell-based. To be noted: Mannheimia haemolytica strain MH 12587, broth-microdilution; unit assumed. In a few lines: as §1
For `CSC(C)(C)[C@H](NC(=O)c1ccc(C#Cc2ccc(CNCc3ccc(C)cc3)cc2)cc1)C(=O)NO` [Compound 252], the MIC MH 12587 is 3.1 µg/mL (≈ 6.01 µM).

Consider `CC[C@H](C)[C@H](NC(=O)c1ccc(C#Cc2ccc(CN3CCCC3)cc2)cc1)C(=O)NO` [Compound 174], for which the MIC MH 12587 turned out to be 6.3 µg/mL (≈ 14.5 µM).

Regarding `Cc1cnc(CNCc2ccc(C#Cc3ccc(C(=O)N[C@H](C(=O)NO)C(C)(C)S(C)(=O)=O)cc3)cn2)o1` [Compound 357], the MIC MH 12587 was determined as 1.6 µg/mL (≈ 2.97 µM).

In the case of `CSC(C)(C)[C@H](NC(=O)c1ccc(C#Cc2ccc(CNCc3cccnc3)cc2)cc1)C(=O)NO` [Compound 247], the MIC MH 12587 came out at 0.8 µg/mL (≈ 1.59 µM).
